According to patent publication US7473790B2 (Pfizer Inc., priority 2003, dated 2009):

What follows are compounds tested against T1, HCV polymerase (Hepatitis C virus genotype 1b, UniProt P26663) (assay: HCV polymerase primer/template-directed transcription assay (32P-GTP incorporation, filter binding)). Conditions: @ 20 uM compound; given where IC50 was impractical to calculate; read-out: percent inhibition.
T1 construct: 2.5 pmoles (0.15 μg) HCV polymerase protein in a final volume of 75 μL
T1 sequence (P26663 2420-3010): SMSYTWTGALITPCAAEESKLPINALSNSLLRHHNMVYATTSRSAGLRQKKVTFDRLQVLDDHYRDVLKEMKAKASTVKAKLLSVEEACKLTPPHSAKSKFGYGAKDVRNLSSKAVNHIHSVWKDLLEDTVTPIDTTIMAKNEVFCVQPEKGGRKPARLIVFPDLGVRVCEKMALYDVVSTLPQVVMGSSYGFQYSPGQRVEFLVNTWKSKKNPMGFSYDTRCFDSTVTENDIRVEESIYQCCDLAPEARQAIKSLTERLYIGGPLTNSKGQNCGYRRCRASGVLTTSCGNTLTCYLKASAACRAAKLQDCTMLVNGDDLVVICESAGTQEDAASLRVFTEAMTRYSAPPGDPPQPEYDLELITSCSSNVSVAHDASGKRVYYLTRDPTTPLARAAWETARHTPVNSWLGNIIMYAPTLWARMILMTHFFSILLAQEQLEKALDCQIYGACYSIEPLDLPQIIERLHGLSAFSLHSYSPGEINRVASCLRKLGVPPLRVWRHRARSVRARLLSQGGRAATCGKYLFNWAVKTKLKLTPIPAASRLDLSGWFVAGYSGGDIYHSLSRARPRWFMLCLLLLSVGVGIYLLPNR
Assay type: biochemical
Method in brief: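 IC50s come from triplicate cpm, refit with an enzyme-concentration (30 nM) correction when under 200 nM. Reactions ran 30 min at 30° C in Tris pH 7.2 with MgCl2, 1 μM GTP spiked with α-32P-GTP, biotin-dG12 primer and poly(rC)300 template, with 1% DMSO. Incorporated label was collected on DE filtermats and counted.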
Compound COc1ccc(CCC2(C3CCCC3)CC(OCc3cccnc3)=CC(=O)O2)cc1Cl (centres unmarked) [G(1), 6-[2-(3-chloro-4-methoxyphenyl)ethyl]-6-cyclopentyl-4-(pyridin-3-ylmethoxy)-5,6-dihydro-2H-pyran-2-one] has an inhibition at 20 µM of 16%. COc1ccc(CCC2(C3CCCC3)CC(OCc3ccccn3)=CC(=O)O2)cc1Cl (centres unmarked) [G(2), 6-[2-(3-Chloro-4-methoxy-phenyl)-ethyl]-6-cyclopentyl-4-(pyridin-2-ylmethoxy)-5,6-dihydro-pyran-2-one] showed an inhibition at 20 µM of 3%.

Same assay, conditions: @ 50 uM compound; given where IC50 was impractical to calculate; read-out: percent inhibition
With O=C(O)CC(O)(CCNC(=O)CCc1ccco1)C1CCCC1 (centres unmarked) [H(5), 3-Cyclopentyl-5-(3-furan-2-yl-propionylamino)-3-hydroxy-pentanoic acid] the inhibition at 50 µM was 7%. O=C1CC(=O)OC(CSc2ncccn2)(C2CCCC2)C1 (centres unmarked) [I(1), 6-cyclopentyl-6-[(pyrimidin-2-ylthio)methyl]dihydro-2H-pyran-2,4(3H)-dione] gave an inhibition at 50 µM of 27%. For O=C1CC(=O)OC(CSCc2ccco2)(C2CCCC2)C1 (centres unmarked) [I(2), 6-cyclopentyl-6-{[(2-furylmethyl)thio]methyl}dihydro-2H-pyran-2,4(3H)-dione], the inhibition at 50 µM was 22%. Compound CCOc1ccc2nc(SCC3(C4CCCC4)CC(=O)CC(=O)O3)sc2c1 (centres unmarked) [I(3), 6-cyclopentyl-6-{[(6-ethoxy-1,3-benzothiazol-2-yl)thio]methyl}dihydro-2H-pyran-2,4(3H)-dione] has an inhibition at 50 µM of -2%. With CC(C)c1ccc(SCC2(C3CCCC3)CC(=O)CC(=O)O2)cc1 (centres unmarked) [I(4), 6-cyclopentyl-6-{[(4-isopropylphenyl)thio]methyl}dihydro-2H-pyran-2,4(3H)-dione] the inhibition at 50 µM was 44%.

Same assay, conditions: recombinant HCV polymerase; 30 minutes at 30° C.; concentration giving 50% inhibition of polymerase-directed transcription; read-out: IC50
For Cc1cc(C)n2nc(CC3=C(O)CC(COc4ccc(C(C)(C)C#N)c(F)c4)(C4CCCC4)OC3=O)nc2n1 (centres unmarked) [C(112), 2-{4-[2-Cyclopentyl-5-(5,7-dimethyl-[1,2,4]triazolo[1,5-a]pyrimidin-2-ylmethyl)-4-hydroxy-6-oxo-3,6-dihydro-2H-pyran-2-ylmethoxy]-2-fluoro-phenyl}-2-methyl-propionitrile], the IC50 was 0.064 µM. N#CCC(=O)c1ccc(C#CC2(C3CCCC3)CC(=O)CC(=O)O2)cc1 (centres unmarked) [E(1), 3-[4-(2-Cyclopentyl-4,6-dioxo-tetrahydro-pyran-2-ylethynyl)-phenyl]-3-oxo-propionitrile] showed an IC50 of 22 µM. N#CCC(=O)c1ccc(C#CC2(C3CCCC3)CC(=O)CC(=O)O2)s1 (centres unmarked) [E(2), 3-[5-(2-Cyclopentyl-4,6-dioxo-tetrahydro-pyran-2-ylethynyl)-thiophen-2-yl]-3-oxo-propionitrile] showed an IC50 of 8.2 µM. For N#CCc1cccc(C#CC2(C3CCCC3)CC(=O)CC(=O)O2)c1 (centres unmarked) [E(3), [3-(2-Cyclopentyl-4,6-dioxo-tetrahydro-pyran-2-ylethynyl)-phenyl]-acetonitrile], the IC50 was 65 µM. Cc1cc(C#CCCC2(C3CCCC3)CC(=O)CC(=O)O2)c(C)cc1O (centres unmarked) [F(1), 6-Cyclopentyl-6-[4-(4-hydroxy-2,5-dimethyl-phenyl)-but-3-ynyl]-dihydro-pyran-2,4-dione] gave an IC50 of 7.2 µM. For NS(=O)(=O)c1cccc(C#CCCC2(C3CCCC3)CC(=O)CC(=O)O2)c1 (centres unmarked) [F(2), 3-[4-(2-Cyclopentyl-4,6-dioxo-tetrahydro-pyran-2-yl)-but-1-ynyl]-benzenesulfonamide], the IC50 was 7.2 µM. For CSc1ccccc1C#CCCC1(C2CCCC2)CC(=O)CC(=O)O1 (centres unmarked) [F(3), 6-Cyclopentyl-6-[4-(2-methylsulfanyl-phenyl)-but-3-ynyl]-dihydro-pyran-2,4-dione], the IC50 was 8.4 µM. O=C1CC(=O)OC(CCC#Cc2ccccc2OC(F)(F)F)(C2CCCC2)C1 (centres unmarked) [F(4), 6-Cyclopentyl-6-[4-(2-trifluoromethoxy-phenyl)-but-3-ynyl]-dihydro-pyran-2,4-dione] gave an IC50 of 5.8 µM. With O=C1CC(=O)OC(CCC#Cc2ccc(F)cc2)(C2CCCC2)C1 (centres unmarked) [F(5), 6-Cyclopentyl-6-[4-(4-fluoro-phenyl)-but-3-ynyl]-dihydro-pyran-2,4-dione] the IC50 was 25 µM. With Cc1ccc(C#CCCC2(C3CCCC3)CC(=O)CC(=O)O2)cc1 (centres unmarked) [F(6), 6-Cyclopentyl-6-(4-p-tolyl-but-3-ynyl)-dihydro-pyran-2,4-dione] the IC50 was 83 µM. Compound O=C1OC(CCC#Cc2cccc(O)c2)(C2CCCC2)CC(O)=C1Sc1nccs1 (centres unmarked) [F(7), 6-Cyclopentyl-4-hydroxy-6-[4-(3-hydroxy-phenyl)-but-3-ynyl]-3-(thiazol-2-ylsulfanyl)-5,6-dihydro-pyran-2-one] has an IC50 of 7.5 µM. Work on COC1=CC(=O)OC(CCc2ccc(OC)c(Cl)c2)(C2CCCC2)C1 (centres unmarked) [G(3), 6-[2-(3-Chloro-4-methoxy-phenyl)-ethyl]-6-cyclopentyl-4-methoxy-5,6-dihydro-pyran-2-one] yielded an IC50 of 29 µM. O=C1CC(=O)OC(CCNC(=O)CCc2ccco2)(C2CCCC2)C1 (centres unmarked) [H(1), N-[2-(2-Cyclopentyl-4,6-dioxo-tetrahydro-pyran-2-yl)-ethyl]-3-furan-2-yl-propionamide] showed an IC50 of 1 µM. In the case of O=C1CC(=O)OC(CCNC(=O)c2ccco2)(C2CCCC2)C1 (centres unmarked) [H(2), Furan-2-carboxylic acid [2-(2-cyclopentyl-4,6-dioxo-tetrahydro-pyran-2-yl)-ethyl]-amide], the IC50 is reported as 51 µM. With O=C1CC(=O)OC(CCCNC(=O)CCc2ccco2)(C2CCCC2)C1 (centres unmarked) [H(3), N-[3-(2-Cyclopentyl-4,6-dioxo-tetrahydro-pyran-2-yl)-propyl]-3-furan-2-yl-propionamide] the IC50 was 1.2 µM. Cc1cc(C)n2nc(SC3=C(O)CC(CCNC(=O)CCc4ccco4)(C4CCCC4)OC3=O)nc2n1 (centres unmarked) [H(4), N-{2-[2-Cyclopentyl-5-(5,7-dimethyl-[1,2,4]triazolo[1,5-a]pyrimidin-2-ylsulfanyl)-4-hydroxy-6-oxo-3,6-dihydro-2H-pyran-2-yl]-ethyl}-3-furan-2-yl-propionamide] was tested, and the IC50 was 60 µM.
